Consider three molecules from patent publication US20220326229A1, “ASSAY FOR REAL-TIME SIMULTANEOUS RECRUITMENT OF ARRESTIN ISOFORMS TO G PROTEIN-COUPLED RECEPTORS” (Purdue Research Foundation, priority 2021, published 2022).

Test [1] has as its target T1, δ opioid receptor (DOR) (Mus musculus, UniProt P32300).
T1 construct: influenza signal peptide (N); linker […]; expressed in transfected cells; host or cells: HEK293
As to the kind of experiment: ClickArr assay: simultaneous recruitment of Barr1 (508 nm) and Barr2 (620 nm) to DOR in triply transfected HEK293 cells. Format: cell-based.

Test [2] addresses D2R (Homo sapiens, UniProt P14416). The following applies: cited from earlier work.
Test [3] deals with T2, dopamine D2 receptor (D2R) (Homo sapiens, UniProt P14416).
T2 construct: linker […]; expressed in transfected cells; host or cells: HEK293
Format: cell-based. The conditions noted are these: FIG. 7B; single replicate, pilot experiment.

Test [4] addresses T3, Signal peptide + FLAG tag-KOR-GSSGGGGSGGGGSGGGGSGGGG-CBGct(395-542) (mouse).
T3 construct: also called kappa opioid receptor-CBGct; kappa opioid receptor
T3 chain: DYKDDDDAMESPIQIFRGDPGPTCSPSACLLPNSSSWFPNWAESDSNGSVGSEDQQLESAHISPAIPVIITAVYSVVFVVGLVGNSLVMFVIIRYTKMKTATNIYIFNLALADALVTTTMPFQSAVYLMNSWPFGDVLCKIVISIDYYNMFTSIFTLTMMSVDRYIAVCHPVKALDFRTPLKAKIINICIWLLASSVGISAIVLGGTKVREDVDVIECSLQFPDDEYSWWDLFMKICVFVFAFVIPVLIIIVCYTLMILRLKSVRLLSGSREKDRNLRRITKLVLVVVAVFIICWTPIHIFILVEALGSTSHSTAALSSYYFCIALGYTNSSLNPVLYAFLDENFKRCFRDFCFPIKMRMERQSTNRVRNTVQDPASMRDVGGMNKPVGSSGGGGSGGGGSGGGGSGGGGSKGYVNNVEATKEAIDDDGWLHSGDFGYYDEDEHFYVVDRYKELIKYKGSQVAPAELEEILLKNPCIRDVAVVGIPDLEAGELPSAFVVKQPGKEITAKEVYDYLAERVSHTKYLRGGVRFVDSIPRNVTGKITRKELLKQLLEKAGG
Briefly: split click beetle luciferase complementation (ClickArr), triply transfected cells, dynorphin17 dose-response, single replicate.

Test [5] has as its target T4, Signal peptide + FLAG tag-DOR-GSSGGGGSGGGGSGGGGSGGGG-CBGct(395-542) (mouse (Mus musculus)).
T4 construct: also called optimized DOR construct; DOR-CBGct
T4 chain: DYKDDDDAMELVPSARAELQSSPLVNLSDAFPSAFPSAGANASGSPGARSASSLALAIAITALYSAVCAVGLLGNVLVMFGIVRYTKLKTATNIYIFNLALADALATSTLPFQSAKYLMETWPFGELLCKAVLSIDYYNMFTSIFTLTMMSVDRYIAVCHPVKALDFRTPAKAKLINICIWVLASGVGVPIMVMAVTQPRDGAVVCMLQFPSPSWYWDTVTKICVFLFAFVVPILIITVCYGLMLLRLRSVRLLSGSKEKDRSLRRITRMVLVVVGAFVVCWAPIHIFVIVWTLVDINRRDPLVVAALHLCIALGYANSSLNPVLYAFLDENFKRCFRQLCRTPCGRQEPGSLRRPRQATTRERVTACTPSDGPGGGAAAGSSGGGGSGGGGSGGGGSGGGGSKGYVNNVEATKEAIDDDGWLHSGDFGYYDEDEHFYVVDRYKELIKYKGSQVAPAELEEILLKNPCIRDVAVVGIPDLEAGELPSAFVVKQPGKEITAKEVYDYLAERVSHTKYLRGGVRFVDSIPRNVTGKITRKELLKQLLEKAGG
Briefly: split click beetle luciferase complementation (ClickArr), kinetic read at 508 nm, triply transfected HEK293 cells, 32 µM leu-enkephalin or TAN67.

Test [6] concerns the target T5, 3xHA-AGTR1(2-360)-GSSGGGGSGGGGSGGGGSGGGG-CBGct(395-542) (human).
T5 construct: also called AGTR1-CBGct; angiotensin type 1 receptor
T5 chain: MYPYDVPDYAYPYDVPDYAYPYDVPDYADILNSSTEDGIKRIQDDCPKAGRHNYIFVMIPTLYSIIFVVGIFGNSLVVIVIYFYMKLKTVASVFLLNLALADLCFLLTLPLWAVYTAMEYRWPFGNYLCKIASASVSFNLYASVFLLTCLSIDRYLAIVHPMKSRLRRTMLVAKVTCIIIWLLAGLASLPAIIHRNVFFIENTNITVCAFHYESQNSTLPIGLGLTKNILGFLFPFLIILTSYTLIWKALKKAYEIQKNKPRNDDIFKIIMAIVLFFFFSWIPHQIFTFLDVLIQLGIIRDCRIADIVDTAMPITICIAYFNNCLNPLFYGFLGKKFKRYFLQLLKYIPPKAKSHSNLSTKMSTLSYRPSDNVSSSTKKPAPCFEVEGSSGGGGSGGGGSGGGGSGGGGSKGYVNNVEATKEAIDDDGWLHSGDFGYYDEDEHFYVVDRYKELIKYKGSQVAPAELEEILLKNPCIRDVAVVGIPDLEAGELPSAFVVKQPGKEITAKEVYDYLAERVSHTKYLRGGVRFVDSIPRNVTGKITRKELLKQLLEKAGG
As to the kind of experiment: split click beetle luciferase complementation (ClickArr), triply transfected cells, angiotensin II dose-response, single replicate.

The target of test [7] is T6, D2R-GSSGGGGSGGGGSGGGGSGGGG-CBGct(395-542) (human).
T6 construct: also called D2R-CBGct; dopamine D2 receptor
T6 chain: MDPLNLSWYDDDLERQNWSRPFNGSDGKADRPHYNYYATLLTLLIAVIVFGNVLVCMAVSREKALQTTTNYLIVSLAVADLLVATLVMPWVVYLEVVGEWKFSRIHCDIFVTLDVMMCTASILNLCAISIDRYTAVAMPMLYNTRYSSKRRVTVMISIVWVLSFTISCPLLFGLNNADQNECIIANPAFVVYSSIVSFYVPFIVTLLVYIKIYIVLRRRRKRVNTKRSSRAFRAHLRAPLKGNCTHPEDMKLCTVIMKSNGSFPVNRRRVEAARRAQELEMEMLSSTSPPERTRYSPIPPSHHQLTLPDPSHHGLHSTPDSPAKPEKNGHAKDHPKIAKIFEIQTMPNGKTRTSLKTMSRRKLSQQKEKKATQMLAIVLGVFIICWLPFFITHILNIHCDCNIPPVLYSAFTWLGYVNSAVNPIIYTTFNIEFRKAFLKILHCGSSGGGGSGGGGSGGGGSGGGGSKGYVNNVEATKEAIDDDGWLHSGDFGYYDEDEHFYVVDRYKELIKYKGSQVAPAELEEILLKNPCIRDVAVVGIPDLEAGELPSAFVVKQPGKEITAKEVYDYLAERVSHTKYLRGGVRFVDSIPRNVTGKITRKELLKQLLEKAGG
Briefly: split click beetle luciferase complementation (ClickArr), triply transfected cells, UNC9994 dose-response, single replicate.

T1 sequence (P32300 with tags, fused parts or gaps): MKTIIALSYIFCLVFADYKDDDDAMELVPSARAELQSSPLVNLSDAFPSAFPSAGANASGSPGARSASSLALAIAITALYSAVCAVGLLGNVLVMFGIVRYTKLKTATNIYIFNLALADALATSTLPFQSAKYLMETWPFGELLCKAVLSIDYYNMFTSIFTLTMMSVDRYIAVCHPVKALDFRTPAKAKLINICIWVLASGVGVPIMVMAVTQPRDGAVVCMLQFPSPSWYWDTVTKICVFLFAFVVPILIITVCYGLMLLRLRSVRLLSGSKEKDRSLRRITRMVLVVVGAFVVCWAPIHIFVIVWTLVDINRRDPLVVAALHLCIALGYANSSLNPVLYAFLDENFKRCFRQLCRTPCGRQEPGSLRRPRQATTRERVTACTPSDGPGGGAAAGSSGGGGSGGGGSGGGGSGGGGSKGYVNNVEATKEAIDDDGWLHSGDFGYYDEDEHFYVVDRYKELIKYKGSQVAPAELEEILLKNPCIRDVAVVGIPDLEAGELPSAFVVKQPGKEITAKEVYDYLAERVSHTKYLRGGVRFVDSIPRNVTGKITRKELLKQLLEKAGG

For `Br.Br.CN1CC[C@@]2(c3cccc(O)c3)Cc3nc4ccccc4cc3C[C@@H]2C1` (racemic) [TAN67, (R*,S*)-(±)-2-Methyl-4aa-(3-hydroxyphenyl)-1,2,3,4,4a,5,12,12aa-octahydroquinolino[2,3,3-g]isoquinoline dihydrobromide], the “Δ% efficacy Barr1-Barr2 compared to Leu-Enk” value in test [1] (difference in maximum change in signal between arrestin isoforms, as a percentage of Leu-Enk, n=5-6 biological replicates, FIG. 5C) is “significant difference in efficacy”. Moreover, in test [1] (saturating concentration (32 μM), n=6 replicates, FIGS. 6A, 6B), the “Kinetics of Barr1 vs Barr2 recruitment (normalized β-arrestin signal over time)” value is given as “Recruitment of Barr1 is much slower than Barr2”.

For the molecule `Cl.Clc1cccc(C2CCN(CCCOc3ccc4scnc4c3)CC2)c1Cl` [UNC9994, 5-(3-(4-(2,3-dichlorophenyl)piperidin-1-yl)propoxy)benzo[d]thiazole hydrochloride], the EC50 in test [2] (Allen et al., PNAS 108(45): 18488-18493 (2011), read-out: Published potency value) was 448 nM. The “log10 of published potency value” in test [2] (log10 (M) of 448 nM, Allen et al. 2011) is on record as roughly −6.3. For the same molecule, in test [3], the “Potency of β-arrestin curves relative to published value” was “as potent or more potent than published values” and the “Response: fold change in dopamine receptor:β-arrestin signal” value was “showed a response”.

B1: CBGnt(1-415)-SGGGGSGGGGSGGGGSGGGGS-Barr1 (other)
chain: MVKREKNVIYGPEPLHPLEDLTAGEMLFRALRKHSHLPQALVDVVGDESLSYKEFFEATVLLAQSLHNCGYKMNDVVSICAENNTRFFIPVIAAWYIGMIVAPVNESYIPDELCKVMGISKPQIVFTTKNILNKVLEVQSRTNFIKRIIILDTVENIHGCESLPNFISRYSDGNIANFKPLHFDPVEQVAAILCSSGTTGLPKGVMQTHQNICVRLIHALDPRVGTQLIPGVTVLVYLPFFHAFGFSITLGYFMVGLRVIMFRRFDQEAFLKAIQDYEVRSVINVPSVILFLSKSPLVDKYDLSSLRELCCGAAPLAKEVAEVAAKRLNLPGIRCGFGLTESTSANIHSLGDEFKSGSLGRVTPLMAAKIADRETGKALGPNQVGELCIKGPMVSKGYVNNVEATKEAIDDDGWLSGGGGSGGGGSGGGGSGGGGSGDKGTRVFKKASPNGKLTVYLGKRDFVDHIDLVDPVDGVVLVDPEYLKERRVYVTLTCAFRYGREDLDVLGLTFRKDLFVANVQSFPPAPEDKKPLTRLQERLIKKLGEHAYPFTFEIPPNLPCSVTLQPGPEDTGKACGVDYEVKAFCAENLEEKIHKRNSVRLVIRKVQYAPERPGPQPTAETTRQFLMSDKPLHLEASLDKEIYYHGEPISVNVHVTNNTNKTVKKIKISVRQYADICLFNTAQYKCPVAMEEADDTVAPSSTFCKVYTLTPFLANNREKRGLALDGKLKHEDTNLASSTLLREGANREILGIIVSYKVKVKLVVSRGGDVAVELPFTLMHPKPKEEPPHREVPENETPVDTNLIELDTNDDDIVFEDFARQRLKGMKDDKEEEEDGTGSPQLNNR
notes: also called optimized Barr1 construct; CBGnt-Barr1
With B1, the binding result in test [4], in test [5], in test [6] and in test [7] was “binds” each time.
